Values quoted from earlier work in PMC9780888, “4-Isobutylmethcathinone—A Novel Synthetic Cathinone with High In Vitro Cytotoxicity and Strong Receptor Binding Preference of Enantiomers” (Pharmaceuticals, 2022).

Assays:
SH-SY5Y cells = tested on: SH-SY5Y cells; set-up: method as in PMID 31473217; conditions: 24 h of exposure ref 20; cited from earlier work
[1] = tested on: DAR2-like family receptors vs DAR1-like family of receptors; conditions: cited from earlier work
HTR receptor = tested on: HTR receptor; set-up: method as in PMID 22897747; conditions: cited from earlier work
SERT = conditions: S- versus R-enantiomer, 13 in b3; cited from earlier work
[2] = tested on: neuronal differentiated SH-SY5Y cells; set-up: method as in PMID 25624004; conditions: 24-h exposure, ToxiLight BioAssay ref 30; cited from earlier work
HTR2A = tested on: HTR2A; set-up: method as in PMID 22897747; conditions: cited from earlier work

Which IC50 (SH-SY5Y cells) does the source give for `CNC(C)C(=O)c1ccc(C)c(C)c1` (stereo not drawn) [3,4-DMMC] here?
Its IC50 is over 1000 µM.

For `NCCc1ccc(O)c(O)c1` [DA, dopamine], which “affinity of DAR2-like family receptors relative to DAR1-like family” value [1] is on record?
Its value is 10-100 fold.

For `CCNC(C)Cc1ccc2c(c1)OCO2` (stereo not drawn) [MDEA, 3,4-methylenedioxy-N-ethylamphetamine], which “HTR receptor binding activity” value (HTR receptor) is on record?
The value was “has not been demonstrated”.

Which “HTR receptor binding activity” value (HTR receptor) does the source give for `CNC(C)Cc1ccc2c(c1)OCO2` (stereo not drawn) [MDMA, 3,4-methylenedioxymethamphetamine] here?
The value was “has not been demonstrated”.

For `CN[C@@H](C)C(=O)c1ccc(C)cc1` [S-mephedrone], which “potency as SERT releaser relative to R-mephedrone” value (SERT) is on record?
Its value is 40 times.

Which “reported value for mitochondrial dysfunction” value [2] does the source give for `CCCC(C(=O)c1ccccc1)N1CCCC1` (stereo not drawn) [alpha-PVP] here?
Its value is “above 100 mM”.

For `CNC(C)C(=O)c1ccc(F)cc1` (stereo not drawn) [flephedrone], which HTR2A-binding activity (HTR2A) is on record?
Its HTR2A-binding activity is “has been previously described”.

For `CNC(C)C(=O)c1ccc(C)cc1` (stereo not drawn) [mephedrone], which HTR2A-binding activity (HTR2A) is on record?
The HTR2A-binding activity was “has been previously described”.

For `CNC(C)C(=O)c1ccccc1` (stereo not drawn) [methcathinone], which HTR2A-binding activity (HTR2A) is on record?
Its HTR2A-binding activity is “has been previously described”.
